Tests used:
Type in all cases: cell-based, human
AML cells = assay: Growth inhibition of AML cells in vitro; conditions: 48 h
Method: (§1) Whole blood (10 ml) was drawn from a previously diagnosed CD33+ myeloid leukemic patient and mononuclear cells were separated by Ficoll/hypaqal density gradient centrifugation.
(§2) Incubation of PBMC of myeloid leukemia patients with purified compound 3-O-p-coumaryl quinic acid in vitro. PBMC (2×10^6/ml) of myeloid leukemia patients were incubated with varied concentrations of purified compound for 48 h. Cells were then washed, and counted for viability.
Incubation of myeloid leukemic cells with fractions having retention time 3.60 (fraction-1) and 24.00 min (fraction 9). PBMC of myeloid leukemic patients were incubated with above-mentioned fractions, alone or in combination of the two for 48 HRs. Cells were then washed and counted for viability.

CML cells = assay: Growth inhibition of CML cells in vitro; conditions: 48 h
Method: as §1, §2

[1] = system: CD33+ myeloid leukemia cells; assay: Incubation of PBMC of CD33+ myeloid leukemia patients, viability count and flow cytometry; conditions: purified compound, varied concentrations, 48 h
Method: Preparation of peripheral blood mononuclear cells (PBMC) from CD33+ myeloid leukemia patients ex vivo blood.
as §1
Incubation of PBMC of myeloid leukemia patients with crude Piper betel extract. PBMC (2×10^6/ml) of myeloid leukemia patients were incubated with Piper betel extract (10.0 mg/ml) for 48 hours and then washed and counted for viability.
Incubation of PBMC of myeloid leukemia patients with fraction E in vitro. PBMC (2×10^6/ml) of myeloid leukemia patients were incubated with varied concentrations of fraction E for 48 hours. Cells were then washed and counted for viability.
as §2
Flow cytometry of myeloid leukemia cells. Myeloid leukemia cells before and after in vitro incubation with crude Piper betel extract, purified fraction E or purified 3-O-p-coumaryl quinic acid were marked with anti-CD33-FITC and anti-CD13-PE monoclonal antibodies. Cells were then analysed in a flow cytometer (FACS Calibur, Bection Dickinson, USA)

For O=C(C=Cc1ccc(O)cc1)OC1CC(O)(C(=O)O)CC(O)C1O (stereo not drawn) [3-O-p-coumaryl quinic acid], the “Percent inhibition of growth” value (AML cells; 100 μg/ml) was 53.37%, the “Percent inhibition of growth” value (AML cells; 600 μg/ml) was 100.00% and the “% Inhibition (percent inhibition of growth)” value (AML cells; single fraction, dose 100 μg/ml) was 54.00%. For the same molecule, the “Percent inhibition of growth” value (CML cells; 100 μg/ml) was 2.53%, the “Percent inhibition of growth” value (CML cells; 600 μg/ml) was 79.50% and the “Destruction of PBMC of CD33+ myeloid leukemia patients (both AML and CML)” value [1] was “destroyed”.
